Measured values taken from US20130064815A1, “INDUCING APOPTOSIS IN QUIESCENT CELLS” (THE TRUSTEES OF PRINCETON UNIVERSITY, priority 2011, published 2013).
Where a SMILES comes first, the peptide text is derived from it. The star is where a group is joined. Cbz = O=C(OCc1ccccc1)*

Legend:
[1] = system: primary human fibroblasts; assay: caspase 3/7 activity apoptosis assay (ApoTox-Glo) in proliferating and quiescent fibroblasts; assay type: cell-based; details: MG132 0 to 10 μM; proliferating and serum-starved cells
Experimental: Referring to FIG. 2A, primary human fibroblasts were tested either in a proliferating state or after being induced into quiescence. Quiescence may be induced by either contact inhibition or serum starvation. Cells were treated with DHEA for four days, with bafilomycin added on the fourth day. Apoptosis was assessed based on the activity of caspase 3/7 for a fluorogenic substrate.
PPP inhibition and apoptosis analysis: Apoptosis was measured based on the levels of caspase 3/7 released into the media using the ApoTox-Glo Triplex Assay according to the manufacturer's instructions (Promega Corp., Madison, Wis.). Cells were plated in triplicate at 10,000 cells per well in white-walled, clear-bottom 96-well plates (Costar, Corning Life Sciences, Lowell, Mass.). For contact inhibition, cells were plated 7 days prior to the start of treatment, for serum starvation cells were plated 4 days prior to treatment and switched to 0.1% serum media for the remaining 3 days, while proliferating cells were plated the day prior to the start of treatment. […] Cells in serum starvation conditions were incubated in 0.1% serum during treatment as well. The apoptosis reagent was added at 100 μl per well and incubated for 1 h prior to reading. Luminescence was read from the top using a Synergy-2 plate reader (Biotek, Winooski, Vt.). Luminescence data were normalized to the vehicle only condition.
Apoptosis induction was assessed by monitoring caspase 3/7 activity using a luminescent caspase substrate. This assay is optimized for high-throughput screening in 96-well plates and allows multiple concentrations and combination of drugs to be tested in triplicate at different time points. […] Therefore, this assay was used to compare proliferating and serum-starved cells only.

[2] = annexin V / PI flow cytometry after proteasome inhibition; assay type: cell-based, human; details: human
Experimental: (§1) To elucidate the responses of proliferating and quiescent fibroblasts to proteasome inhibition, the effects of known proteasome inhibitors on proliferating and quiescent fibroblasts were examined.
(§2) At the highest dose (10 μM), approximately 50% of proliferating cells were apoptotic (FIG. 24A-lower right (Q4), upper right (Q2), and upper left (Q1) quadrants represent early apoptosis, late apoptosis, and very late apoptosis or necrosis, respectively). In comparison, quiescent fibroblasts were largely unaffected by MG132 treatment, showing far lower levels of apoptosis.

[3] = system: proliferating and quiescent fibroblasts; assay: as above; assay type: cell-based, human; details: for cells with signs of apoptosis: highest dose (10 μM)
Experimental: as §1, §2

LC3-II = LC3-II immunoblot (autophagy / autophagic flux); assay type: cell-based, human; details: MG132 treatment; proliferating, contact-inhibited and serum-starved states
Experimental: The levels of autophagy components—Atg5/Atg12, Atg7, Atg3, and LC3-I and LC3-II—were monitored in proliferating and contact-inhibited fibroblasts using immunoblotting (FIG. 21A). As a positive control for autophagy induction, samples of cells in each cell cycle state were also incubated in Kreb's Ringer Bicarbonate solution (KRB), a protocol that induces autophagy through amino acid starvation and elimination of other nutrients except glucose. Levels of Atg5/Atg12, Atg7, and LC3-II were elevated in all of the amino acid starvation and contact-inhibition states as compared to the proliferating state (FIG. 21A). Atg3 was induced in all quiescent states compared with proliferating states, including amino acid starvation. In order to differentiate whether the high levels of autophagy proteins resulted from a blockade of autophagy degradation or active flux through the pathway, we monitored the levels of LC3-II in proliferating and 7 dCI fibroblasts in the presence of bafilomycin A1 (Baf-A1). Baf-A1 is a vacuolar-type H^+-ATPase inhibitor that prevents autophagosome fusion with the lysosome due to an increase in lysosomal pH. […] This finding is consistent with active autophagic flux in quiescent fibroblasts
In addition to its role in providing amino acids and energy under starvation conditions, autophagy is involved in maintenance of cellular homeostasis and resistance to tumorigenesis through degradation of old or damaged proteins and entire organelles. It was hypothesized that autophagy in contact-inhibited cells could function to degrade old and/or damaged proteins that would otherwise accumulate in the cytoplasm due to lack of cell division as a mechanism for dilution of these proteins. Oxidation of proteins causes the formation of carbonyl groups on amino acids, and carbonylation can disrupt protein function. To monitor the extent of protein oxidation in proliferating and contact-inhibited fibroblasts, the protein carbonyl groups were derivatized using 2,4-dinitrophenylhydrazine (DNP), and monitored using immunoblotting with an antibody that recognizes the covalently added DNP. The levels of oxidized proteins in proliferating and 7 dCI fibroblasts were monitored in cells that were either competent to perform autophagy (control), or were stably expressing an shRNA against the essential autophagy components Atg5 (sh-Atg5) or Atg7 (sh-Atg7), which are known to represent autophagy-defective phenotypes in other model systems. […] In contact-inhibited fibroblasts, in contrast, the levels of oxidized proteins increased 1.5-fold±0.1 in 7 dCI sh-Atg5 fibroblasts as compared to vector control counterparts (p=0.009) (FIG. 22B). […]
To test this hypothesis, the levels of an autophagy-specific form of the LC3 protein, LC3 II, were monitored compared to a housekeeping protein (Klionsky et al., 2008, “Guidelines for the use and interpretation of assays for monitoring autophagy in higher eukaryotes,” Autophagy 4, 151-175, which is incorporated herein by reference as if fully set forth). […]
We observed an increase in the ratio of LC3 II to GAPDH in response to MG132 treatment for cells in proliferating, contact-inhibited and serum-starved states (FIG. 25B). To test whether the high levels of LC3 II in quiescent cells in response to MG132 treatment result from a blockade of autophagy degradation or from active flux through the pathway, LC3 II levels were monitored in proliferating and quiescent fibroblasts treated with MG132 in the presence or absence of bafilomycin A1 (Baf). […]

MnSOD = MnSOD expression after MG132 (microarray, Western blot); assay type: cell-based, human
Description: (§3) Other researchers have reported that there is a correlation between proliferative status and sensitivity to oxidative stress in human fibroblasts (Naderi et al., 2003, “Oxidative stress-induced apoptosis in dividing fibroblasts involves activation of p38 MAP kinase and over-expression of Bax: resistance of quiescent cells to oxidative stress, Apoptosis 8, 91-100, which is incorporated herein by reference as if fully set forth). […] A Western blot analysis was used to monitor the levels of the ROS detoxifying enzymes MnSOD and catalase, an enzyme that converts hydrogen peroxide to water and oxygen. The protein concentrations of MnSOD and catalase were higher in quiescent fibroblasts than in proliferating cells (FIG. 26B), consistent with a previous report (Sarsour et al., 2008, “Manganese superoxide dismutase activity regulates transitions between quiescent and proliferative growth, Aging cell 7, 405-417, which is incorporated herein by reference as if fully set forth). […] It was hypothesized that the higher levels of ROS-detoxifying enzymes in quiescent fibroblasts contributes to the protection of quiescent fibroblasts from proteasome inhibition-induced apoptosis. Intracellular superoxide levels were monitored using dihydroethidium (DHE), an indicator of superoxide anions.

superoxide = assay: intracellular superoxide levels with dihydroethidium (DHE); assay type: cell-based, human; details: proteasome inhibition
Description: as §3

CC(C)C[C@@H](C=O)NC(=O)[C@H](CC(C)C)NC(=O)[C@H](CC(C)C)NC(=O)OCc1ccccc1 [MG132] (Cbz-Leu-Leu-Leu-aldehyde)
caspase 3/7 activity [1]: dose-dependent increases
cytotoxicity at 24 h, 10 μM [2]: ~50%
viability, quiescent vs proliferating fibroblasts ([3]; 48 hours of treatment): significantly higher number of quiescent fibroblasts maintained viability
cells with signs of apoptosis ([3]; contact-inhibited fibroblasts, 24 hours): approximately 14%
apoptotic cells (annexin V and PI) ([3]; proliferating cells, 10 μM, 24 hours): approximately 50%
proliferating cell viability (fraction PI negative) ([3]; proliferating cells, 24 hours): statistically significant, dose-dependent decrease
quiescent cell viability ([3]; quiescent cells, 24 hours, up to 10 μM MG132, 1 μM epoxomicin): maintained high viability
cells with signs of apoptosis ([3]; serum-starved fibroblasts, 24 hours): ~10%
ratio of LC3 II to GAPDH (LC3-II): increase
MnSOD protein levels (MnSOD; Western blot, proliferating and quiescent fibroblasts): further elevated MnSOD levels
MnSOD transcript expression (MnSOD; microarray, proliferating and quiescent cells): induced MnSOD expression
superoxide levels (superoxide; proliferating cells): significant induction of superoxide levels
superoxide levels (superoxide; quiescent cells): maintained basal superoxide levels
